Measured values from ChEMBL document CHEMBL5154839, “Discovery of a selective and covalent small-molecule inhibitor of BFL-1 protein that induces robust apoptosis in cancer cells” (Eur J Med Chem, 2022).
Activity calls are given as the source filed them. No cut-off for these calls is given here.

Experiments:
U-937 [1] = experiment: Induction of apoptosis in human U-937 cells assessed as late apoptotic cells at 10 uM measured after 4 hrs by Annexin PI staining based flow cytometry method (reference value: 1.62 %); assay type: functional
U-937 [2] = experiment: Induction of apoptosis in human U-937 cells assessed as necrotic cells at 60 uM measured after 4 hrs by Annexin PI staining based flow cytometry method (reference value: 0.00 %); assay type: functional
MV4-11 = experiment: Growth inhibition of human MV4-11 cells incubated for 4 days by WST assay; assay type: functional, cell-based; conditions: MV4-11, 96 h
[3] = Displacement of fluorescein tagged BID BH3 peptide from His-tagged recombinant BFL-1 (1 to 151 residues) C55A mutant (unknown origin) expressed in Escherichia coli BL21 (DE3) assessed as inhibition constant incubated for 24 hrs by fluorescence polarization-based competitive binding assay; parameters: species or system Homo sapiens
K562 = experiment: Upregulation of BFL-1protein expression in human K562 cells by Western blotting analysis; assay type: functional, cell-based
U-937 [4] = experiment: Induction of apoptosis in human U-937 cells assessed as necrotic cells at 40 uM measured after 4 hrs by Annexin PI staining based flow cytometry method (reference value: 0.00 %); assay type: functional
[5] = target: beta-catenin-B-cell lymphoma 9 protein complex (Homo sapiens, UniProt P35222); experiment: Inhibition of N-terminal biotinylated human BCL9 (350 to 375 residues)/C-terminal 6-His-tagged beta-catenin (1 to 781 residues) (unknown origin) expressed in Escherichia coli BL21 (DE3) protein-protein interaction assessed as inhibition constant incubated for 1 hr by Alphascreen assay
Chain of beta-catenin-B-cell lymphoma 9 protein complex (P35222 whole entry, the tested form may be a part): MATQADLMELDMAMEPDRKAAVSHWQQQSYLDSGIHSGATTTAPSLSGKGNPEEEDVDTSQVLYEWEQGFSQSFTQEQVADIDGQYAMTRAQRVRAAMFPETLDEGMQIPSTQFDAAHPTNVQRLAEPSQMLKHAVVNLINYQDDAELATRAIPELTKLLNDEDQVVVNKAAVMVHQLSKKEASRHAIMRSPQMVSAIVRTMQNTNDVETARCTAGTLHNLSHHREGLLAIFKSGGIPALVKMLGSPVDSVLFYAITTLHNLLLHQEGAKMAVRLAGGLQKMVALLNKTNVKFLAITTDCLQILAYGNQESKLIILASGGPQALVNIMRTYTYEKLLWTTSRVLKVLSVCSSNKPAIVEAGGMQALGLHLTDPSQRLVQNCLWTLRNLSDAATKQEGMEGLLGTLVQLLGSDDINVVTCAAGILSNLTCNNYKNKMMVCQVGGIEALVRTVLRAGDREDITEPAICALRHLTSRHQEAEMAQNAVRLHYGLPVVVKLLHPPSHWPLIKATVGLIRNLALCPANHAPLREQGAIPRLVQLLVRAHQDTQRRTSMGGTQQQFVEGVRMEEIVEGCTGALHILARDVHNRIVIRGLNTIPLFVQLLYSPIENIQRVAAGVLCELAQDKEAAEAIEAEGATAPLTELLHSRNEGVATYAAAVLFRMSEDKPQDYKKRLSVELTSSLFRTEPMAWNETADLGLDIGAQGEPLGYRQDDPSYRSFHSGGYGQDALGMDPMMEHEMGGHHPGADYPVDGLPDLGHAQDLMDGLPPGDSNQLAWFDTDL
Chain of beta-catenin-B-cell lymphoma 9 protein complex (O00512 whole entry, further chain, the tested form may be a part): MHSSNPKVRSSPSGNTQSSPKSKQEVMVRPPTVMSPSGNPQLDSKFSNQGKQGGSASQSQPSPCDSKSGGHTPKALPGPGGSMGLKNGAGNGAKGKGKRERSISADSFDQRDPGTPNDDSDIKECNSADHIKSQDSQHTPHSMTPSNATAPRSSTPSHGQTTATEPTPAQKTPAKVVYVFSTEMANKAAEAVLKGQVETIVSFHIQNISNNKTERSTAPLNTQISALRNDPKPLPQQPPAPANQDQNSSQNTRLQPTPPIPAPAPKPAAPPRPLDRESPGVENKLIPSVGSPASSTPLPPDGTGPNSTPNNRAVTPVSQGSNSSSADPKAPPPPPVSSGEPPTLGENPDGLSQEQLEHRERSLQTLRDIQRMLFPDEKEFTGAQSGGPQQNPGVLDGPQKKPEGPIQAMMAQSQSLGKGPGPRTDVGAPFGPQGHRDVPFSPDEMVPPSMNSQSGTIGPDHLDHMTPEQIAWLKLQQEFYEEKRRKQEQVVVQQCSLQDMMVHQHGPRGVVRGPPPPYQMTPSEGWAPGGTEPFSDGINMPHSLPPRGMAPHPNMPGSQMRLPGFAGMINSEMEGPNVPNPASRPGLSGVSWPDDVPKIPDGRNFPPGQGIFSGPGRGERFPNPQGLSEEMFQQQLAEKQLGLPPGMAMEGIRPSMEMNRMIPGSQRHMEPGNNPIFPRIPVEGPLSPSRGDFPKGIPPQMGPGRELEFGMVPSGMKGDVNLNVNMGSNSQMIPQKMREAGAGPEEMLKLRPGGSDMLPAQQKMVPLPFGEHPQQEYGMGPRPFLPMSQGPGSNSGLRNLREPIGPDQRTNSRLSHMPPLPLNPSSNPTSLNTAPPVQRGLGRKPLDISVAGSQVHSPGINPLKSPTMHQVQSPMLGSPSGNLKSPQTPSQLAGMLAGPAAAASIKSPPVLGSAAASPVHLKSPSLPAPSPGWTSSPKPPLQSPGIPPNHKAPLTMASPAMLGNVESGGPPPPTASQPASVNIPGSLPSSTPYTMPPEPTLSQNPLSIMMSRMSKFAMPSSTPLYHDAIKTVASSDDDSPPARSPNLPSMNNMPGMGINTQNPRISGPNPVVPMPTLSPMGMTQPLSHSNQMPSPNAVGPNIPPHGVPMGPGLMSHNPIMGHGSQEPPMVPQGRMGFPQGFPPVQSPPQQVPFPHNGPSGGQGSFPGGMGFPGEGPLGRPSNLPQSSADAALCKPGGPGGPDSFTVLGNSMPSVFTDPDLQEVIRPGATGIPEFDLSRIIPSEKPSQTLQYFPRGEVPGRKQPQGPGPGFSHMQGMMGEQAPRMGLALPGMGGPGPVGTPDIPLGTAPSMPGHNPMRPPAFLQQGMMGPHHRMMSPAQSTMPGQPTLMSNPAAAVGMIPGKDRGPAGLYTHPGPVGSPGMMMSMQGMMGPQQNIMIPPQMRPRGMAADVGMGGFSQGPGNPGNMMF

[6] = target: Bcl-2-related protein A1 (Homo sapiens) (UniProt Q16548); experiment: Binding affinity to His-tagged recombinant BFL-1 (1 to 151 residues) (unknown origin) expressed in Escherichia coli BL21 (DE3) assessed as association constant by surface plasmon resonance analysis
Chain of Bcl-2-related protein A1 (Homo sapiens) (Q16548 whole entry, the tested form may be a part): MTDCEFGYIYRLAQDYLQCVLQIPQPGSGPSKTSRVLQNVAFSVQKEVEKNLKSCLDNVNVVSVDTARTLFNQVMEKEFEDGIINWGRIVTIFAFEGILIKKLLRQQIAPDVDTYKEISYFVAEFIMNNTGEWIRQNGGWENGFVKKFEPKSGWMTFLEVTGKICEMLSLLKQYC

Kasumi 1 [7] = experiment: Upregulation of BFL-1 protein expression in human Kasumi 1 cells by Western blotting analysis; assay type: functional, cell-based
Raji = experiment: Growth inhibition of human Raji cells incubated for 4 days by WST assay; assay type: functional, cell-based; conditions: 96 h
[8] = target: E3 ubiquitin-protein ligase Mdm2 (Homo sapiens, UniProt Q00987); experiment: Displacement of FAM- labeled PDI peptide from MDM2 (1 to 118 residues) (unknown origin) expressed in Escherichia coli BL21 (DE3) assessed as inhibition constant incubated for 1.5 hrs by fluorescence polarization-based competitive binding assay
Chain of E3 ubiquitin-protein ligase Mdm2 (Q00987 whole entry, the tested form may be a part): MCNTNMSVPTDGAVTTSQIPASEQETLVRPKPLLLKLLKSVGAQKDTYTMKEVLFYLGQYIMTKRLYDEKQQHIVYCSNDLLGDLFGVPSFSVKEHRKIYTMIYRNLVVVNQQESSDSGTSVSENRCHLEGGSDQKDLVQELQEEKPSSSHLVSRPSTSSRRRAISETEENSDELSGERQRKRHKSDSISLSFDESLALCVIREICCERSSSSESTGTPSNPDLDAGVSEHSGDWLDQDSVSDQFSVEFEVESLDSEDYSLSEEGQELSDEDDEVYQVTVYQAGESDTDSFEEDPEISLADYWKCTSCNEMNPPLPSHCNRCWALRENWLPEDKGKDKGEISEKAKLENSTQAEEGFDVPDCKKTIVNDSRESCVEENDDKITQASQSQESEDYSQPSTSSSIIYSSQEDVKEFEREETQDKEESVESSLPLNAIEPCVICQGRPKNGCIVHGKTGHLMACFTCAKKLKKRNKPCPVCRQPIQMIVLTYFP

U-937 [9] = experiment: Induction of apoptosis in human U-937 cells assessed as early apoptotic cells at 40 uM measured after 4 hrs by Annexin PI staining based flow cytometry method (reference value: 1.95 %); assay type: functional
RPMI-8226 = experiment: Growth inhibition of human RPMI-8226 cells incubated for 4 days by WST assay; assay type: functional, cell-based; conditions: RPMI-8226, 96 h
U-937 [10] = experiment: Induction of apoptosis in human U-937 cells assessed as necrotic cells at 10 uM measured after 4 hrs by Annexin PI staining based flow cytometry method (reference value: 0.00 %); assay type: functional
U-937 [11] = experiment: Induction of apoptosis in human U-937 cells assessed as increase in cytochrome c level incubated for 3 hrs by immunoblotting analysis; assay type: functional, cell-based
U-937 [12] = experiment: Induction of apoptosis in human U-937 cells assessed as late apoptotic cells at 40 uM measured after 4 hrs by Annexin PI staining based flow cytometry method (reference value: 1.62 %); assay type: functional
U-937 [13] = experiment: Induction of apoptosis in human U-937 cells assessed as decrease in MCL-1 protein expression after 24 hrs by Western blot analysis; assay type: functional, cell-based; conditions: DDE = dose-dependent effect
U-937 [14] = experiment: Growth inhibition of human U-937 cells incubated for 4 days by WST assay; assay type: functional, cell-based; conditions: U-937, 96 h
[15] = target: Bromodomain-containing protein 3 (Homo sapiens, UniProt Q15059); experiment: Binding affinity to recombinant human BRD3 BD2 (306-417 residues) assessed as inhibition constant by fluorescence polarization assay
Chain of Bromodomain-containing protein 3 (Q15059 whole entry, the tested form may be a part): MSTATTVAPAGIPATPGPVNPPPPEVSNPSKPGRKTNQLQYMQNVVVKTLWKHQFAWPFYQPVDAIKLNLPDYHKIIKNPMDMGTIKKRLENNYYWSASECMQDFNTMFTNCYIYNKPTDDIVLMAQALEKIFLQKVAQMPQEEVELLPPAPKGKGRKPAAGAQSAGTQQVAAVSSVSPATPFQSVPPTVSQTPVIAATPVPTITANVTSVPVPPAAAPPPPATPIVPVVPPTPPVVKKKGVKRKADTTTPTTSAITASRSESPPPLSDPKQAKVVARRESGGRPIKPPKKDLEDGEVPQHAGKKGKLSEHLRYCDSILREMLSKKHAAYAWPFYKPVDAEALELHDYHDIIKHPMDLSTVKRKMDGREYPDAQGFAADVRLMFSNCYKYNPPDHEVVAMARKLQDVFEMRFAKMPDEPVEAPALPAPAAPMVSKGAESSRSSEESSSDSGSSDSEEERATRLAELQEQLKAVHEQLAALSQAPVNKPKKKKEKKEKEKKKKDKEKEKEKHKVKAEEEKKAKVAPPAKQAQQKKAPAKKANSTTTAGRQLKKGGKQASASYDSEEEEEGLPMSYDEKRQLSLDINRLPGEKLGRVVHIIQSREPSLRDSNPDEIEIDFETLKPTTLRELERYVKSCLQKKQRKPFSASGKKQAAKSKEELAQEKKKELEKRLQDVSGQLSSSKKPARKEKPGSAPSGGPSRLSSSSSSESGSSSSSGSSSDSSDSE

[16] = target: Bromodomain-containing protein 2 (Homo sapiens, UniProt P25440); experiment: Binding affinity to recombinant human BRD2 BD1 (72-205 residues) assessed as inhibition constant by fluorescence polarization assay
Chain of Bromodomain-containing protein 2 (P25440 whole entry, the tested form may be a part): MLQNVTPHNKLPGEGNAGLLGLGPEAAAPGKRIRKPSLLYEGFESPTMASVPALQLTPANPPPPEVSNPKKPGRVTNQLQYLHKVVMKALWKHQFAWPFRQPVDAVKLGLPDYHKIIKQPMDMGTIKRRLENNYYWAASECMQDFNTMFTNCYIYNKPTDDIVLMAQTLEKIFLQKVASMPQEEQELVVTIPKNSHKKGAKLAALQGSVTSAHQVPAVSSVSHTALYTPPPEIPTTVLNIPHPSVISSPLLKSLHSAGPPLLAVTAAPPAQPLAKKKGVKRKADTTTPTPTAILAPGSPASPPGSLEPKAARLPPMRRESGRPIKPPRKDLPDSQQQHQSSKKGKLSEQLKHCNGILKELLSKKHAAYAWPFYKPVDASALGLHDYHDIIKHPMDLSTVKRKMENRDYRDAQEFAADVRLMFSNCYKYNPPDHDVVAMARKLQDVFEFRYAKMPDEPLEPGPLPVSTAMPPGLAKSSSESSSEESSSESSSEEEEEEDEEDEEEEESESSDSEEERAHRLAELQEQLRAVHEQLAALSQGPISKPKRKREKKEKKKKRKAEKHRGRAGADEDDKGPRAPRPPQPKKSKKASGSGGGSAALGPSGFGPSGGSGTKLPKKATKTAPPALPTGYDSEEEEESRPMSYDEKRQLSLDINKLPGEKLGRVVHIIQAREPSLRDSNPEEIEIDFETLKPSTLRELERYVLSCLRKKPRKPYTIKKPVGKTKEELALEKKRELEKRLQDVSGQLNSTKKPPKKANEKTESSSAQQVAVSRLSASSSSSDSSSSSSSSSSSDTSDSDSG

Kasumi 1 [17] = experiment: Growth inhibition of human Kasumi 1 cells incubated for 4 days by WST assay; assay type: functional, cell-based; conditions: Kasumi 1, 96 h
HL-60 = experiment: Growth inhibition of human HL-60 cells incubated for 4 days by WST assay; assay type: functional, cell-based; conditions: HL-60, 96 h
[18] = target: Induced myeloid leukemia cell differentiation protein Mcl-1 (Homo sapiens, UniProt Q07820); experiment: Displacement of fluorescein tagged BID BH3 peptide from human MCL-1 (172 to 327 residues) expressed in Escherichia coli BL21 (DE3) assessed as inhibition constant incubated for 1.5 hrs by fluorescence polarization-based competitive binding assay
Chain of Induced myeloid leukemia cell differentiation protein Mcl-1 (Q07820 whole entry, the tested form may be a part): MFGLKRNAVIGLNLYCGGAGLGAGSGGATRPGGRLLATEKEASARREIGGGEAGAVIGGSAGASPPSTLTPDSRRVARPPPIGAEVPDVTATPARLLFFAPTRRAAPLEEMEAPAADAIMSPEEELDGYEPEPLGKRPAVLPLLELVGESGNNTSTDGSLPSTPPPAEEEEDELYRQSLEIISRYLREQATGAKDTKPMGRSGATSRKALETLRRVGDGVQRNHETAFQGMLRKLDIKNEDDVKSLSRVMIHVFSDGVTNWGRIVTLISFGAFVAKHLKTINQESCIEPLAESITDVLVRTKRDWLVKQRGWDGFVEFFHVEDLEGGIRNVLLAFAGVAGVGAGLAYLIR

IC50 (MV4-11): 3.9 µM
Ki [5]: > 400 µM
Ka [6]: 2.09 10^5/Ms
IC50 (Raji): 26.9 µM
Ki [8]: > 400 µM
IC50 (RPMI-8226): 8.7 µM
IC50 (U-937 [14]): 2.8 µM
Ki [15]: > 400 µM
Ki [16]: > 400 µM
IC50 (HL-60): 10.7 µM
Ki [18]: 111 µM
SMILES: C=CC(=O)N1CCN(c2c3ccc(-c4cccc(F)c4)cc3nn2Cc2ccccc2)CC1
Activity (U-937 [1]): 2.19%
Activity (U-937 [2]): 11.37%
Ki [3]: 8.68 µM
Activity (K562): Active
Activity (U-937 [4]): 7.22%
Activity (Kasumi 1 [7]): Active
Activity (U-937 [9]): 5.52%
Activity (U-937 [10]): 0.16%
Activity (U-937 [11]): Active
Activity (U-937 [12]): 20.83%
Activity (U-937 [13]): Dde
IC50 (Kasumi 1 [17]): 5.5 µM
